Consider one molecule from patent US20230219951A1, “PYRIDINE-PYRIMIDINE DERIVATIVE, PREPARATION METHOD THEREFOR AND PHARMACEUTICAL USE THEREOF” (Jiangsu Hengrui Pharmaceuticals Co., Ltd., priority 2020, published 2023).

Assay [1] concerns the target T1, CYP3A4M (Homo sapiens, UniProt P08684).
T1 construct: tissue Corning Gentest 452161; host or cells: human liver microsomes
As to the kind of experiment: Human liver microsome CYP450 inhibition, CYP3A4M midazolam 1-hydroxylation. It is filed as in vitro ADME. As to conditions: human liver microsomes, midazolam probe substrate. Here is the method:
The inhibition effect of the compounds of the present disclosure on the human liver microsome CYP450 enzyme was determined by the following method:
An appropriate amount of human liver microsome stock solution (20 mg/mL) was diluted to obtain a 0.25 mg/mL microsome solution with 7.5 mM MgC12 solution for later use (prepared right before use).
b. An appropriate amount of the stock solution was precisely pipetted, and diluted into series solution I at the concentrations of 10 mM, 3 mM, 1 mM, 0.3 mM, 0.03 mM and 0.003 mM with an appropriate amount of DMSO solution. An appropriate amount of the above series solution I was precisely pipetted, and diluted to obtain series solution II at the concentrations of 3 mM, 1 mM, 0.3 mM, 0.1 mM, 0.03 mM, 0.003 mM and 0.0003 mM with an appropriate amount of acetonitrile. An appropriate amount of the above series solution II was precisely pipetted, and diluted with PBS to obtain a working solution at the concentrations of 150 μM, 50 μM, 15 μM, 5μM, 1.5 μM, 0.15 μM and 0.015 μM for later use.
a. […]
The values were calculated by Graphpad Prism to obtain the IC50 values for the inhibition of drugs on CYP2C19 (S)-mephenytoin 4′-hydroxylation and CYP3A4M midazolam 1-hydroxylation metabolism in human liver microsomes, as shown in Table 6.
(In general: Liver microsomes are vesicles of endoplasmic reticulum, rich in cytochrome P450 enzymes.)

Assay [2] deals with T2, interaction between the KRAS protein subtype G12V and the SOS1 protein (Homo sapiens, UniProt Q07889).
T2 construct: GST-TEV-SOS1(564-1049) (Viva Biotech, SOS1-191010); purchased SOS1: Viva Biotech; KRAS: Shanghai Panchao Biotechnology Co., Ltd. SOS1-191010
T2 sequence (Q07889 564-1049): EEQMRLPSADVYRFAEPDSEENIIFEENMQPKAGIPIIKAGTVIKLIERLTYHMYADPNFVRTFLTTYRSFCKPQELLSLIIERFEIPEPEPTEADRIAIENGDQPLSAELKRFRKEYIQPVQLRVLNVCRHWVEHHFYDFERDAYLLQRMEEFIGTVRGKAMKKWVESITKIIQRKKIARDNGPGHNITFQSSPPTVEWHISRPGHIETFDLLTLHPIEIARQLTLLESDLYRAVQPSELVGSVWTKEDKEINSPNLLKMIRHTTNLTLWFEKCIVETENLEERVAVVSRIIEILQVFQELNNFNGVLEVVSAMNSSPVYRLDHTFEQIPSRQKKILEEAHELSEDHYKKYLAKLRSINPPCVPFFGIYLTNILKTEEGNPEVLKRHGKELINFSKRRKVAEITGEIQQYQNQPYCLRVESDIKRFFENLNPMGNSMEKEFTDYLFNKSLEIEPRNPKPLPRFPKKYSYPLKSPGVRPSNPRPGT
Description: Inhibition of the interaction between KRAS G12V and SOS1 protein (AlphaLISA/AlphaScreen). It is filed as binding. As to conditions: KRAS G12V + GST-TEV-SOS1(564-1049) + GDP. In a few lines:
(§1)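 Biotinylated KRAS G12D or G12V preincubated with SOS1 and GDP, then with compound (10-point 5-fold series from 40 μM) for 30 min at room temperature in PBS, 0.1% BSA, 0.05% Tween 20. Glutathione acceptor/streptavidin donor beads added for 60 min; Alpha signal read and IC50 calculated.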

For assay [3], the target named is T3, interaction between the KRAS protein subtype G12D and the SOS1 protein (Homo sapiens, UniProt Q07889).
T3 construct: GST-TEV-SOS1(564-1049) (Viva Biotech, SOS1-191010); purchased SOS1: Viva Biotech; KRAS: Shanghai Panchao Biotechnology Co., Ltd. SOS1-191010
T3 sequence (Q07889 564-1049): T2 sequence (Q07889 564-1049)
As to the kind of experiment: Inhibition of the interaction between KRAS G12D and SOS1 protein (AlphaLISA/AlphaScreen). It is filed as binding. As to conditions: KRAS G12D + GST-TEV-SOS1(564-1049) + GDP. In a few lines: as §1

T1 sequence (P08684 whole entry): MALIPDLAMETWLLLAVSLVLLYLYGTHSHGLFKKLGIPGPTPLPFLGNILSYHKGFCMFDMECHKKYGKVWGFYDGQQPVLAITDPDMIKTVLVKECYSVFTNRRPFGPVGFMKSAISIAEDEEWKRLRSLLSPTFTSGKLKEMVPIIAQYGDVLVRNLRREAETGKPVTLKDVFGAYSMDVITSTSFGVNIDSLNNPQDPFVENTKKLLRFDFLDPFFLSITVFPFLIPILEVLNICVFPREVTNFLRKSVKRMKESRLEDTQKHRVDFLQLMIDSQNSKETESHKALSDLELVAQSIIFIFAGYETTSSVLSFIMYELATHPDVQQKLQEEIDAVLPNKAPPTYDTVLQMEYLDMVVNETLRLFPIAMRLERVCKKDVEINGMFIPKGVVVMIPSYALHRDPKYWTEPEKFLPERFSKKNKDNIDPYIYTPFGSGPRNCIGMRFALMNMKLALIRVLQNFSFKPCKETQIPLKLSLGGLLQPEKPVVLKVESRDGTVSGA

Turning to `Cc1nc(N[C@H](C)c2cccc(C(F)F)c2F)c2cc([C@]3(O)CC[C@@H](O)CC3)c(=O)[nH]c2n1` [Example 18-p1, 4-(((R)-1-(3-(difluoromethyl)-2-fluorophenyl)ethyl)amino)-6-((1s,4S)-1,4-dihydroxycyclohexyl)-2-methylpyrido[2,3-d]pyrimidin-7(8H)-one], the 50% inhibitory concentration (IC50) (in general, the concentration that gives 50% inhibition) is over 30 µM in assay [1], 67 nM in assay [2] and 20 nM in assay [3].
